# Legend:
# HeLa cells [1] = assay: Annexin V/PI analysis, HeLa; assay type: cell-based, human; conditions: 50 and 100 μM, 72 h, compared to control
# Procedure: (§1) For the analysis of the progression of cells through cell cycle phases and sub-G1 peak identification, 24 h after plating, cells were treated with the different compounds. After 72 h, both floating and adherent cells were collected and fixed with cold 70% ethanol. At least 24 h after fixation, cells were incubated with 0.025 mg/mL Propidium Iodide for 15 min at room temperature and analyzed. For Annexin V analysis, 24 h after plating, cells were treated with 50 and 100 μM of the compounds. In the case of chloroquine experiments, 10 μM chloroquine (Sigma-Aldrich, A9165) was added 30 min before compounds. 72 h after treatment, both floating and adherent cells were collected and stained with an Annexin V-FITC apoptosis detection kit (ENZO #ALX-850-020-KI). Samples were incubated 15 min in the dark at rt, and 10,000 events were then analyzed.
# [2] = tested on: UCP2 mRNA in HCT116 cells; assay: qRT-PCR of UCP2 mRNA in HCT116 cells; assay type: cell-based, human; conditions: HCT116, 100 μM, 48 h
# Procedure: Total RNA was isolated from cells after 48 h of treatment with compounds 19 and 34 (100 μM) using TRIzol reagent (Life Technologies) following the manufacturer’s instructions. cDNA was obtained by reverse transcription using a SensiFast cDNA Synthesis kit (Meridian Bioscience). qRT-PCR was performed using a Luna Universal qPCR Master Mix (BioLabs) and detected by Quant Studio3. The fold change of gene expression data was calculated by using the ddCT method. All samples were run in sextupled, and the results were presented as mean ± SEM. Detailed sequence of the primers used in the experiments can be found in the list below. • UCP2—Forward: 5′-[…]-3′ • Reverse 5′-[…]-3′ • HOXA9 — Forward: 5′-[…]-3′ • Reverse: 5′-[…]-3′
# HeLa cells [3] = assay: MTT cell proliferation assay, HeLa; assay type: cell-based, human; conditions: 10, 25, 50, 100 μM, 72 h
# Source text: (§2) Human commercially available AML U937, breast cancer MCF7, lung adenocarcinoma NCI-H460, H1299 and A-549, glioblastoma U251, B lymphocyte AHH1 cell lines were maintained in compete 10% foetal bovine serum (FBS,) RPMI 1640 (Euroclone, Milan, IT) medium. Human commercially available colon cancer HCT116 and HT29 lines and cervix adenocarcinoma HeLa cells were maintained in compete 10% FBS Dulbecco’s Modified Eagle Medium (DMEM) high glucose medium (Euroclone). L-Glutamine, FBS, and penicillin streptomycin mixture added to medium were obtained from Euroclone. All cell lines were cultured at 37 °C in a humidified atmosphere of 5% CO2:95% air and were tested for mycoplasma contamination routinely by RT-PCR.
# (§3) For analysis of cell proliferation, cells were plated in sextuplicate on 96-well plates in complete media. After 24 h, cells were exposed to different drugs for 72 h. The inhibitory effect of different drugs was assessed by MTT (Sigma, St. Louis, MO, USA) colorimetric assays as previously reported.[67] Aqueous DMSO (0.5% v/v) was used as a control (untreated). The results are reported as “viability of drug-treated cells/viability of untreated cells” × 100 and represent the average ±SD of three independent experiments. IC50 values were using fitted by nonlinear regression using GraphPad Prism 8.0.
# KAT3B = biological target: T1, KAT3B (Homo sapiens, UniProt Q09472); assay: HotSpot KAT assay, KAT3B; assay type: biochemical; conditions: enzyme 1 nM, NI = no inhibition at 200 μM, mean ± SD of three independent experiments; for IC50: read-out: IC50 KAT3B (1 nM)
# T1 construct: KAT3B (aa 1284–1672, 1 nM); purchased Reaction Biology Corporation
# T1 sequence (Q09472 1284-1672): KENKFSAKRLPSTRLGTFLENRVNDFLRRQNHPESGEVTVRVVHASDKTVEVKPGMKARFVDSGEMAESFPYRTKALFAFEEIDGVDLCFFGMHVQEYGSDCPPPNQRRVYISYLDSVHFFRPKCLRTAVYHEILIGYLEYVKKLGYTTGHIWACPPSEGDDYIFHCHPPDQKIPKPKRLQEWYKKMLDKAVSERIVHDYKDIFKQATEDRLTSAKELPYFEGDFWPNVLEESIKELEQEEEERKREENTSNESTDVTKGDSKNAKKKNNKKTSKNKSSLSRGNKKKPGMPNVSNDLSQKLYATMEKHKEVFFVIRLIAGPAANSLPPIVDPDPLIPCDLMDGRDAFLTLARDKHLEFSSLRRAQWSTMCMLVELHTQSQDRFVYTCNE
# HeLa cells [4] = assay: Cell cycle analysis by propidium iodide staining, HeLa; assay type: cell-based, human; conditions: 72 h
# Procedure: as §1
# HT29 cells = assay: Cell cycle analysis by propidium iodide staining, HT29; assay type: cell-based, human; conditions: 72 h
# Procedure: as §1
# KAT8 = biological target: T2, KAT8 (Homo sapiens, UniProt Q9H7Z6); assay: SPR-based KAT8 binding assay; conditions: immobilized KAT8, 25 °C, read-out: equilibrium dissociation constant (KD)
# T2 construct: using the previously purified KAT8 (173–458, 5 nM); 6xHis tag with TEV protease cleavage site (N, cleaved yes); made in house; host or cells: E. coli BL21(DE3)
# T2 sequence (Q9H7Z6 173-458): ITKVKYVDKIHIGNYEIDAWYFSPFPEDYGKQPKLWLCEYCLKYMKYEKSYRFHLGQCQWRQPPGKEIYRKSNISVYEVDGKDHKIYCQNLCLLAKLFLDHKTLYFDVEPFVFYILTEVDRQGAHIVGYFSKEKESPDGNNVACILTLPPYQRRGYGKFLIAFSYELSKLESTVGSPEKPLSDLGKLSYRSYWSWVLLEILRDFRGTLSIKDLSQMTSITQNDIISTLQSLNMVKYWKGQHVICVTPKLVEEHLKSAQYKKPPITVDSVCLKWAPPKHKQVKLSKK
# Procedure: SPR analyses were performed on a Biacore 3000 optical biosensor (GE Healthcare) equipped with a research-grade CM5 sensor chip. KAT8 was immobilized (30 μg/mL in 10 mM sodium acetate, pH 4.5) at a flow rate of 10 μL/min by using a standard amine-coupling protocol to obtain a density of 12 kRU. One flow cell was left empty for background subtractions. Both compounds, dissolved in DMSO (100%), were diluted in assay buffer (150 mM NaCl, 10 mM HEPES pH 7.4, 0.005% Tween-20), always maintaining a final 1% DMSO concentration. Binding experiments were performed at 25 °C by using a flow rate of 30 μL/min, with 120 s monitoring of association and 200 s monitoring of dissociation. Regeneration of the surfaces was performed, when necessary, by a 10 s injection of 1 mM NaOH.
# MCF7 cells = assay: MTT cell proliferation assay, MCF7; assay type: cell-based, human; conditions: 10, 25, 50, 100 μM, 72 h
# Source text: as §2, §3
IC50 KAT3B (1 nM) (KAT3B),IC50 (KAT3B) [µM],Kd (KAT8) [µM],Compound,"apoptotic cell population (Annexin V), HeLa (HeLa cells [1])",UCP2 mRNA levels [2],antiproliferative activity in HeLa (HeLa cells [3]),"change in the different stages of cell cycle, HeLa (HeLa cells [4])","change in the different stages of cell cycle, HT29 (HT29 cells)",antiproliferative activity in MCF7 (MCF7 cells)
no inhibition at 200 μM,> 200,4.94 ± 0.18,"CC1=NN(c2ccc(C(=O)O)cc2)C(=O)/C1=C\c1ccc[nH]1 [Compound 19, (Z)-4-(4-((1H-Pyrrol-2-yl)methylene)-3-methyl-5-oxo-4,5-dihydro-1H-pyrazol-1-yl)benzoic Acid]",only a slight increase in apoptotic cell population,reduce the mRNA levels of UCP2,a certain degree of antiproliferative activity,no significative change,no significative change,neither inhibitor had any effect
,> 200,2.04 ± 0.24,"O=C(O)c1ccc(N2N=C(c3ccccc3)/C(=C/c3ccc[nH]3)C2=O)cc1 [Compound 34, (Z)-4-(4-((1H-Pyrrol-2-yl)methylene)-5-oxo-3-phenyl-4,5-dihydro-1H-pyrazol-1-yl)benzoic Acid]",only a slight increase in apoptotic cell population,reduce the mRNA levels of UCP2,a certain degree of antiproliferative activity,no significative change,no significative change,neither inhibitor had any effect

# Source: publication PMC10226132, “First-in-Class Selective Inhibitors of the Lysine Acetyltransferase KAT8” (Journal of Medicinal Chemistry, 2023)
